Measurements from patent US20020022594A1, “Bax fragment induced tumor cell death” (priority 2000, published 2002).
Where a SMILES comes first, the peptide text is derived from it. [ ]: non-standard residue; d: D form. The star is where a group is joined. Nle = CCCC[C@H](N)C(=O)O; Cbz = O=C(OCc1ccccc1)*; CH2F = FC*

Legend:
[1] = system: Jurkat T cells; assay: Transient transfection of Bax/p18 or Bax/p21 cDNA in Jurkat T cells; format: cell-based, human; details: 48 hours after cDNA transfection
Procedure: (§1) The resulting supernatant was then centrifuged at 14,000×g for 30 minutes, followed by collection of both the supernatant and pellet fractions. […] The supernatant was further centrifuged at 600,000×g for 30 minutes and the resulting supernatant was collected as the cytosol fraction. To prepare a whole cell extract, cells were lysed in the lysis buffer, and the lysate was centrifuged at 14,000×g for 30 minutes.
(§2) Bax/p18 cDNA was amplified by PCR with human Bax-α-cDNA as template using primer 5′-[…] (forward) and 5′-[…] (reverse) (Wood et al., 1998) and cloned into pcDNA3.0 between Hind III and Xho I restriction enzyme sites. Bax/p18 cDNA was verified by sequencing. MCF-7, Jurkat T. Neo and BcI-2 cells were transfected with pcDNA3.0 vector alone or pcDNA3.0 vector containing Bax/p18 or Bax/p21 cDNA using GenePORTER Transfection Reagent (Gene Therapy Systems, San Diego, Calif.) according to the manufacture's instructions. Briefly, 3 μg of plasmid DNA in 500 μl of RPMI 1640 medium was incubated for 30 minutes at room temperature with 25 μl of GenePORTER reagent in 500 μl of RPMI 1640 medium. The resultant GenePORTER-plasmid DNA mixture (1 ml) was then added into cells 2×10^6 cells in a well of a 6-well plate, followed by 5 hours incubation at 37° C. in a humidified atmosphere consisting of 5% CO2. After that, 1 ml of RPMI 1640 medium containing 20% fetal calf serum was added and the cells were further incubated for additional 43 hours before harvest. […]

[2] = system: human breast cancer MCF-7; assay: Transient transfection of Bax/p18 or Bax/p21 cDNA in MCF-7 cells; format: cell-based
Procedure: as §1
as §2, with “CO2.” for “CO2. After that, 1 ml of RPMI 1640 medium containing 20% fetal calf serum was added and the cells were further incubated for additional 43 hours before harvest.”

[3] = biological target: T1, Bcl-2 (Homo sapiens, UniProt P10415); assay: Immunoprecipitation-Western blot assay of interaction with Bcl-2 in mitochondrial fraction; format: binding; details: mitochondrial fraction of Jurkat T cells untreated or treated with VP-16 for 12 hours
T1 construct: the mitochondria fraction (500 μg of protein) from VP-16-treated or untreated Jurkat T cells; endogenous in cells; host or cells: Jurkat T cells, untreated or treated with VP-16 for 12 hours; mitochondrial membrane-enriched fraction
Procedure: Immunoprecipitation assay was performed as described previously (Fattman et al., 1997). Briefly, the mitochondria fraction (500 μg of protein) from VP-16-treated or untreated Jurkat T cells was incubated with a 5 μg of a monoclonal anti-human Bcl-2 antibody overnight at 4° C. The protein-antibody complex was then precipitated by incubating with 2 μl of Protein G plus Protein A agarose (Oncogene) for 1 hour at 4° C. and centrifuging at 2000×g at 4° C. for 1 hour. Both the precipitate and supernatant fractions were then analyzed by immunoblotting using the monoclonal B9 anti-human Bax antibody.

[4] = system: Jurkat T cells; assay: Calpeptin pre- and co-treatment of VP-16-treated Jurkat T cells; format: cell-based, human
Procedure: (§3) MCF-7, Jurkat T. Neo and Bcl-2 cells were cultured in RPMI 1640 supplemented with 10% fetal calf serum, 100 units/ml of penicillin and 100 μg/ml of streptomycin at 37° C. in a humidified atmosphere consisting of 5% CO2 and 95% air. […] For the experiment using a specific calpain inhibitor, Jurkat T cells were pretreated for 1 hour with calpeptin at 10 μM, followed by a co-incubation with 50 μM of VP-16, as indicated in figure legends.
as §1
(§4) The primary antibodies used were: monoclonal B9anti-Bax antibody (Santa Cruz Biotechnology, Santa Cruz, Calif.) at 1:500, monoclonal 6A7 anti-Bax antibody (Pharmingen, San Diego, Calif.) at 1:500, monoclonal anti-Bcl-2 antibody (Dako, Glostrup, Denmark) at 1:500, monoclonal anti-caspase-3 antibody (Onocogene, Cambridge, Mass.) at 1:200, monoclonal anti-cytochrome C antibody (Pharmingen) at 1:500, polyclonal anti-PARP antibody (Boehringer Manheim, Indianapolis, Ind.) at 1:3000, monoclonal anti-cytochrome oxidase unit 11 (COX) antibody (Molecular Probes, Eugene, Oreg.) at 1:200, and monoclonal anti-calpain 30 kDa subunit antibody (Chemicon, Temecula, Calif.) at 1:500.

[5] = system: cell-free Bax cleavage activity (calpain-like) in whole cell extract of VP-16-treated Jurkat T cells; assay: Cell-free Bax cleavage assay with protease inhibitors; format: biochemical, human; details: 35S-labeled Bax, 2 hours
Procedure: Briefly, the ^35S-labeled Bax protein (1 μl) was incubated with 100 μg of a whole cell extract or a cytosol or mitochondrial fraction in an assay buffer (10 mM HEPES, pH 7.4, 5 mM MgCl2, 5 mM CaCl2, and 1 mM DTT), supplemented with ATP-regenerating system (0.1 mg/ml creatine kinase, 100 mM creatine phosphate, and 5 mM ATP) for 2 hours at 37° C. […] For inhibitor studies, 10 μM of calpain inhibitor-1 (LLnL), 10 μM of calpain inhibitor-2 (LLM), 20 μM of pan-caspase inhibitor Z-VAD-FMK, 20 μM of caspase-3 inhibitor Ac-DEVD-CMK, or 20 μM of the specific proteasome inhibitor castolactacystin, lactone was added in the Bax cleavage system.

[6] = system: Jurkat T cells; assay: Apoptotic execution in drug-treated Jurkat T cells (caspase-3 processing, PARP cleavage, DNA fragmentation, TUNEL)
[7] = system: Bcl-2 cells (Jurkat T cells overexpressing Bcl-2); assay: VP-16 treatment of Bcl-2 overexpressing Jurkat T cells; details: VP-16 50 μM
[8] = system: Neo cells (Jurkat T cells transfected with vector alone); assay: VP-16 treatment of Neo (vector) Jurkat T cells; format: cell-based, human; details: VP-16 50 μM
Procedure: as §3, §1
Briefly, the ^35S-labeled Bax protein (1 μl) was incubated with 100 μg of a whole cell extract or a cytosol or mitochondrial fraction in an assay buffer (10 mM HEPES, pH 7.4, 5 mM MgCl2, 5 mM CaCl2, and 1 mM DTT), supplemented with ATP-regenerating system (0.1 mg/ml creatine kinase, 100 mM creatine phosphate, and 5 mM ATP) for 2 hours at 37° C. […]

[9] = system: Jurkat T cells; assay: Cell-free Bax cleavage activity in whole cell lysates of drug-treated Jurkat T cells; details: VP-16 50 μM; absent in untreated cells
[10] = system: Jurkat T cells; details: VP-16 50 μM
[11] = system: Jurkat T cells; assay: Cytochrome c release from mitochondria to cytosol in drug-treated Jurkat T cells; format: cell-based, human
Procedure: as §1, §4

[12] = calpeptin 10 μM pre- and co-treatment, VP-16 50 μM

T1 sequence (P10415 whole entry): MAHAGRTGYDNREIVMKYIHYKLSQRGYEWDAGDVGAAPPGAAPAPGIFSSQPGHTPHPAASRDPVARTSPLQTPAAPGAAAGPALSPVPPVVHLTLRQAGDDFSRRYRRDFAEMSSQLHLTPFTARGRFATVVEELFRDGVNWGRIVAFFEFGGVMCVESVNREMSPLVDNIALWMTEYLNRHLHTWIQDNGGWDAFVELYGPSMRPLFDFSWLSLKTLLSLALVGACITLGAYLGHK

Molecule: Bax/p21: full-length Bax protein, endogenous or expressed from transfected Bax-α cDNA
- release of cytochrome c [1]: not observed
- cytochrome c-associated apoptotic events [2]: did not induce
- interaction with Bcl-2 (co-immunoprecipitation by anti-Bcl-2 antibody) [3]: co-immunoprecipitated

Molecule: CCCC[C@@H](C=O)NC(=O)[C@H](CC(C)C)NC(=O)OCc1ccccc1 [calpeptin, Calpeptin]
- effect on VP-16-induced Bax cleavage [4, 12]: delay
- effect on VP-16-induced release of cytochrome c from mitochondria to the cytosol [4, 12]: delay
- time of VP-16-induced caspase-3 processing and PARP cleavage with calpeptin (delayed from 6 hours) [4, 12]: 24 h
- time of autolysis of the 30 kDa small subunit of calpain with calpeptin (delayed from 3 hours) [4, 12]: 24 h
- apoptosis induction by the inhibitor itself ([4]; calpeptin 10 μM, 1 hour pretreatment, no VP-16): did not induce apoptosis
- inhibition of PARP cleavage at 24 hours ([4]; fresh calpeptin added at 18 hours after VP-16 treatment): complete inhibition

Molecule: CSCC[C@@H](C=O)NC(=O)[C@H](CC(C)C)NC(=O)[C@H](CC(C)C)NC(C)=O [LLM, calpain inhibitor KK] (Ac-Leu-Leu-Met-aldehyde)
- inhibition of cell-free Bax cleavage activity ([5]; inhibitor 10 μM): completely inhibited

Molecule: COc1cc([C@@H]2c3cc4c(cc3[C@@H](O[C@@H]3O[C@@H]5CO[C@@H](C)O[C@H]5[C@H](O)[C@H]3O)[C@H]3COC(=O)[C@H]23)OCO4)cc(OC)c1O [VP-16, Etoposide]
- time at which apoptotic execution phase began (caspase-3 processing/activation, PARP cleavage, DNA fragmentation) ([6]; VP-16 50 μM): 6 h
- delay of appearance of Bax/p18 and p36 bands versus Neo cells [7]: 9 h
- delay of detection of cell-free Bax cleavage activity versus Neo cells [7]: 9 h
- time after which caspase-3 processing and PARP cleavage were observed [7]: 24 h
- time after which release of cytochrome c was detected [7]: 12 h
- time of appearance of Bax/p18 and p36 bands [7]: 12 h
- time of autolysis of calpain 30 kDa subunit (delayed from 3 hours in Neo cells) [7]: 12 h
- earliest time of appearance of Bax/p18 and p36 bands [8]: 3 h
- treatment time at which apoptosis was induced (caspase-3 processing, PARP cleavage) [8]: ≥ 6 h
- treatment time at which cell-free Bax cleavage activity is present in cell extract [9]: ≥ 3 h
- earliest time of Bax cleavage (Bax/p18 and p36 bands, B9 antibody) [10]: 3 h
- time at which autolysis of the calpain 30 kDa subunit began [10]: 3 h
- treatment time after which cytosolic cytochrome c appeared ([11]; VP-16 50 μM): 3 h

Molecule: CN[C@@H]1C[C@H]2O[C@@](C)([C@@H]1OC)n1c3ccccc3c3c4c(c5c6ccccc6n2c5c31)C(=O)NC4 [staurosporin]
- time at which caspase-3 processing/activation, PARP cleavage and DNA fragmentation occurred ([6]; staurosporin 1 μM, up to 24 hours): ≥ 6 h
- treatment time after which cytosolic cytochrome c appeared ([11]; staurosporin 1 μM): 3 h

Molecule: Bax/p18: calpain-cleaved 18 kDa Bax fragment; the cloned Bax/p18 consists of amino acids 33-192 of Bax, expressed from transfected cDNA
- caspase-3 processing/activation, PARP cleavage and DNA fragmentation [1]: detected
- release of cytochrome c [1]: induced
- cytochrome c-associated apoptotic events [2]: release of cytochrome c, cleavage of PARP and fragmentation of DNA
- interaction with Bcl-2 (co-immunoprecipitation by anti-Bcl-2 antibody) [3]: did not interact

Molecule: CC(=O)N[C@@H](CC(=O)O)C(=O)N[C@@H](CCC(=O)O)C(=O)N[C@H](C(=O)N[C@@H](CC(=O)O)C(=O)CCl)C(C)C [Ac-DEVD-CMK]
- inhibition of cell-free Bax cleavage activity ([5]; inhibitor 20 μM): partially inhibited

Molecule: COC(=O)C[C@H](NC(=O)[C@H](C)NC(=O)[C@@H](NC(=O)OCc1ccccc1)C(C)C)C(=O)CF [Z-VAD-FMK] (Cbz-Val-Ala-Asp(OMe)-CH2F)
- inhibition of cell-free Bax cleavage activity ([5]; inhibitor 20 μM): partially inhibited

Molecule: CCCC[C@@H](C=O)NC(=O)[C@H](CC(C)C)NC(=O)[C@H](CC(C)C)NC(C)=O [LLnL, calpain inhibitor I] (Ac-Leu-Leu-[Nle]-aldehyde)
- inhibition of cell-free Bax cleavage activity ([5]; inhibitor 10 μM): completely inhibited
